Test results published in ChEMBL document CHEMBL1811896, “Isoflavone dimers and other bioactive constituents from the figs of Ficus mucuso” (J Nat Prod, 2011).
Calls of active or inactive are those of the source. The rule behind the calls is not given here.

How the values were obtained:
[1] = target: T1, Enoyl-acyl-carrier protein reductase (Plasmodium falciparum) (UniProt Q965D5); assay: Inhibition of Plasmodium falciparum Enoyl-ACP reductase using crotonyl-CoA as substrate at 0.25 mM peincubated for 5 mins measured after 10 mins of substrate addition by UV-vis spectrophotometry
T1 sequence (whole entry): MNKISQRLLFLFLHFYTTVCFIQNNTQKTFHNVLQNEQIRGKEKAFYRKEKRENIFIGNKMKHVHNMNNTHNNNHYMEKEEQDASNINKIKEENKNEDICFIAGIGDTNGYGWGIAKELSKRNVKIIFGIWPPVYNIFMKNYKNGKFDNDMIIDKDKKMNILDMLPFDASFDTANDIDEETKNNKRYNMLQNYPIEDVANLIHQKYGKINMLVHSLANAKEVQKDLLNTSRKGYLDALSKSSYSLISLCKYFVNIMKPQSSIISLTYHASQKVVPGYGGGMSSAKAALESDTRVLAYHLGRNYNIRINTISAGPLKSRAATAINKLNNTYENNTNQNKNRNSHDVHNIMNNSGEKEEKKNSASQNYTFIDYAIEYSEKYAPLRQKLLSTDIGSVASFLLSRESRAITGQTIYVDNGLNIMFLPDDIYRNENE

Escherichia coli [2] = assay: Inhibition of Escherichia coli beta-glucuronidase assessed as inhibition of p-nitrophenyl-beta-D-glucuronide hydrolysis at 0.08 mM preincubated for 30 mins measured 30 mins after substrate addition by spectrophotometry
[3] = target: T1, Enoyl-acyl-carrier protein reductase (Plasmodium falciparum); assay: (§1) Inhibition of Plasmodium falciparum Enoyl-ACP reductase using crotonyl-CoA as substrate peincubated for 5 mins measured after 10 mins of substrate addition by UV-vis spectrophotometry
Escherichia coli [4] = assay: Inhibition of Escherichia coli beta-glucuronidase assessed as inhibition of p-nitrophenyl-beta-D-glucuronide hydrolysis at 0.05 mM preincubated for 30 mins measured 30 mins after substrate addition by spectrophotometry
Escherichia coli [5] = assay: Inhibition of Escherichia coli beta-glucuronidase assessed as inhibition of p-nitrophenyl-beta-D-glucuronide hydrolysis at 0.20 mM preincubated for 30 mins measured 30 mins after substrate addition by spectrophotometry
[6] = Inhibition of Escherichia coli beta-glucuronidase assessed as inhibition of p-nitrophenyl-beta-D-glucuronide hydrolysis preincubated for 30 mins measured 30 mins after substrate addition by spectrophotometry
[7] = target: T1, Enoyl-acyl-carrier protein reductase (Plasmodium falciparum); conditions: 0.1 mM
Description: Inhibition of Plasmodium falciparum Enoyl-ACP reductase using crotonyl-CoA as substrate at 0.1 mM peincubated for 5 mins measured after 10 mins of substrate addition by UV-vis spectrophotometry

[8] = target: T2, Enoyl-acyl-carrier protein reductase (Plasmodium falciparum, UniProt Q965D5); assay: as §1
T2 sequence (Q965D5 whole entry): T1 sequence (whole entry)

Escherichia coli [9] = assay: Ratio of D-saccharic acid-1,4-lactone IC50 to compound IC50 for Escherichia coli beta-glucuronidase
Escherichia coli [10] = assay: Inhibition of Escherichia coli beta-glucuronidase assessed as inhibition of p-nitrophenyl-beta-D-glucuronide hydrolysis at 0.10 mM preincubated for 30 mins measured 30 mins after substrate addition by spectrophotometry
[11] = target: T1, Enoyl-acyl-carrier protein reductase (Plasmodium falciparum); assay: Inhibition of Plasmodium falciparum Enoyl-ACP reductase using crotonyl-CoA as substrate at 0.025 mM peincubated for 5 mins measured after 10 mins of substrate addition by UV-vis spectrophotometry
[12] = target: T1, Enoyl-acyl-carrier protein reductase (Plasmodium falciparum); conditions: 0.05 mM
Description: Inhibition of Plasmodium falciparum Enoyl-ACP reductase using crotonyl-CoA as substrate at 0.05 mM peincubated for 5 mins measured after 10 mins of substrate addition by UV-vis spectrophotometry

[13] = target: T1, Enoyl-acyl-carrier protein reductase (Plasmodium falciparum); assay: Inhibition of Plasmodium falciparum Enoyl-ACP reductase using crotonyl-CoA as substrate at 0.15 mM peincubated for 5 mins measured after 10 mins of substrate addition by UV-vis spectrophotometry

## CC1(C)C=Cc2c(cc3occ(-c4ccc(O)cc4)c(=O)c3c2O)O1
[1]
  inhibition: 12.6%
Escherichia coli [2]
  inhibition: 17.6%

## CCCCC/C=C/CCCCCCC[C@@H](O)[C@@H](O)[C@H](CO)NC(=O)[C@H](O)CCCCCCCCCCCCCCCCCCCCCC
[1]
  inhibition: inactive
Escherichia coli [2]
  inhibition: 1.7%
[3]
  inhibition: inactive

## C[C@@H]1CC[C@]2(C(=O)O)CC[C@]3(C)C(=CC[C@@H]4[C@@]5(C)C[C@@H](O)[C@H](OC(=O)/C=C/c6ccc(O)cc6)C(C)(C)[C@@H]5CC[C@]43C)[C@@H]2[C@]1(C)O
[1]
  inhibition: 3.9%
Escherichia coli [2]
  inhibition: 15.9%

## O=C(O)[C@@H](O)[C@H]1OC(=O)[C@H](O)[C@H]1O
Escherichia coli [4]
  inhibition: 99.5%

## O=C(O)c1ccc(O)c(O)c1
Escherichia coli [5]
  inhibition: 23.5%

## O=c1cc(-c2ccc(O)cc2)oc2cc(O)cc(O)c12
Escherichia coli [5]
  inhibition: 15.7%

## COc1c(-c2ccc(O)c(O)c2)oc2cc(O)cc(O)c2c1=O [3-O-METHYLQUERCETIN]
[6]
  IC50: 44.6 µM
[7]
  inhibition: 88.2%
[8]
  IC50: 35.2 µM
Escherichia coli [5]
  inhibition: 85.2%

## O=c1c(O)c(-c2ccc(O)cc2)oc2cc(O)cc(O)c12 [KAEMPFEROL]
[6]
  IC50: 27.6 µM
[1]
  inhibition: 6.5%
Escherichia coli [5]
  inhibition: 87.5%

## CC1=C[C@H](c2cc(-c3coc4cc(O)cc(O)c4c3=O)ccc2O)[C@](C)(/C=C/c2cc(-c3coc4cc(O)cc(O)c4c3=O)ccc2O)CC1 [MUCUSISOFLAVONE A]
[6]
  IC50: 0.68 µM
[1]
  inhibition: inactive
[3]
  inhibition: inactive
Escherichia coli [9]
  Ratio IC50: 71
Escherichia coli [5]
  inhibition: 98.7%

## CC(C)=C[C@@H]1C[C@](C)(/C=C/c2cc(-c3coc4cc(O)cc(O)c4c3=O)ccc2O)Oc2ccc(-c3coc4cc(O)cc(O)c4c3=O)cc21 [MUCUSISOFLAVONE B]
Escherichia coli [10]
  inhibition: 70.1%
[6]
  IC50: 14 µM
[1]
  inhibition: inactive
[3]
  inhibition: inactive

## CC(C)=CCc1cc(-c2coc3c(C(C=C(C)C)c4cc(-c5coc6cc(O)cc(O)c6c5=O)ccc4O)c(O)cc(O)c3c2=O)ccc1O (centres undefined) [MUCUSISOFLAVONE C]
Escherichia coli [10]
  inhibition: 94%
[11]
  inhibition: 89.1%
[6]
  IC50: 3.08 µM
[8]
  IC50: 7.69 µM

## Oc1cc(Cl)ccc1Oc1ccc(Cl)cc1Cl [TRICLOSAN]
[12]
  inhibition: 99.5%
[8]
  IC50: 0.2 µM

## CC(C)=CCc1c(O)cc2occ(-c3ccc(O)cc3)c(=O)c2c1O [WIGHTEONE]
[6]
  IC50: 4.03 µM
[13]
  inhibition: 42.6%
Escherichia coli [5]
  inhibition: 97.3%

## COc1ccc(C(=O)O)cc1 [p-ANISIC ACID]
[6]
  IC50: 124 µM
[1]
  inhibition: inactive
[3]
  inhibition: inactive
Escherichia coli [5]
  inhibition: 66.2%
